Drawing on patent US7626031B2, “Substituted 3-(diarylmethylene)indolin-2-ones and methods of their use” (Symphony Evolution, Inc., priority 2002, dated 2009), this text covers IC50 for 14 compounds.

Assay [1] addresses IRK (Homo sapiens, UniProt P06213). In words: Kinase assay, IRK. Type of assay: biochemical. As to the method:
(§1) Kinase activity and compound inhibition are investigated using one or more assay formats. The ATP concentrations for each assay are selected to be close to the Michaelis-Menten constant (KM) for each individual kinase. Dose-response experiments are performed at 10 different inhibitor concentrations in a 384-well plate format. […] Exemplary kinase assays are described below. KDR Assay

Assay [2] has as its target Flt-1 (Homo sapiens, UniProt P17948). In words: Kinase assay, Flt-1 (33P-ATP incorporation or luciferase-coupled ATP consumption). In kind it is biochemical. The settings on record: read-out: Flt1 IC50. As to the method: (§2) Kinase assays were performed by measurement of incorporation of γ-^33P ATP into immobilized myelin basic protein (MBP). […] Plates were washed 3× with 100 μl TBS. […] Compound dilutions were performed in DMSO and added to assay wells to a final DMSO concentration of 1%. Each data point was measured in duplicate, and at least two duplicate assays were performed for each individual compound determination. Enzyme was added to final concentrations of 10 nM or 20 nM, for example. A mixture of unlabeled ATP and γ-^33P ATP was added to start the reaction (2×10^6 cpm of γ-^33P ATP per well (3000 Ci/mmole) and either 10 μM or 30 μM unlabeled ATP, typically. The reactions were carried out for 1 hour at room temperature with shaking. Plates were washed 7× with TBS, followed by the addition of 50 μl/well scintillation fluid (Wallac). Plates were read using a Wallac Trilux counter. This is only one format of such assays, various other formats are possible, as known to one of ordinary skill in the art.
(§3) Tyrosine kinase activity is determined by 1) measurement of kinase-dependent ATP consumption by in the presence of a generic substrate such as, polyglutamic acid, tyrosine, 4:1 (pEY), by luciferase/luciferin-mediated chemiluminescence or; 2) incorporation of radioactive phosphate derived from ^33P-ATP into a generic substrate which has been adsorbed onto the well surface of polystyrene microtiter plates. Phosphorylated substrate products are quantified by scintillation spectrometry.
as §1

Assay [3] addresses T1, KDR (baculovirus expressed human KDR kinase domain D807-V1356) (Homo sapiens, UniProt P35968).
T1 construct: human KDR kinase domain D807-V1356; host or cells: baculovirus expression system
Put plainly: biochemical. Here is the method:
as §1
KDR biochemical activity was assessed using a Luciferase-Coupled Chemiluminescent Kinase assay (LCCA) format. Kinase activity was measured as the percent ATP remaining following the kinase reaction. Remaining ATP was detected by luciferase-luciferin-coupled chemiluminescence. […] The mixture is incubated at ambient temperature for 4 hours after which 20 uL luciferase-luciferin mix is added and the chemiluminescent signal read using a Wallac Victor^2 reader.

For assay [4], the target named is EGFR (Homo sapiens, UniProt P00533). Put plainly: Kinase assay, EGFR (33P-ATP incorporation or luciferase-coupled ATP consumption). Type of assay: biochemical. Here is the method: as §2, §3, §1
Sequence of EGFR (P00533 25-1210, species assumed): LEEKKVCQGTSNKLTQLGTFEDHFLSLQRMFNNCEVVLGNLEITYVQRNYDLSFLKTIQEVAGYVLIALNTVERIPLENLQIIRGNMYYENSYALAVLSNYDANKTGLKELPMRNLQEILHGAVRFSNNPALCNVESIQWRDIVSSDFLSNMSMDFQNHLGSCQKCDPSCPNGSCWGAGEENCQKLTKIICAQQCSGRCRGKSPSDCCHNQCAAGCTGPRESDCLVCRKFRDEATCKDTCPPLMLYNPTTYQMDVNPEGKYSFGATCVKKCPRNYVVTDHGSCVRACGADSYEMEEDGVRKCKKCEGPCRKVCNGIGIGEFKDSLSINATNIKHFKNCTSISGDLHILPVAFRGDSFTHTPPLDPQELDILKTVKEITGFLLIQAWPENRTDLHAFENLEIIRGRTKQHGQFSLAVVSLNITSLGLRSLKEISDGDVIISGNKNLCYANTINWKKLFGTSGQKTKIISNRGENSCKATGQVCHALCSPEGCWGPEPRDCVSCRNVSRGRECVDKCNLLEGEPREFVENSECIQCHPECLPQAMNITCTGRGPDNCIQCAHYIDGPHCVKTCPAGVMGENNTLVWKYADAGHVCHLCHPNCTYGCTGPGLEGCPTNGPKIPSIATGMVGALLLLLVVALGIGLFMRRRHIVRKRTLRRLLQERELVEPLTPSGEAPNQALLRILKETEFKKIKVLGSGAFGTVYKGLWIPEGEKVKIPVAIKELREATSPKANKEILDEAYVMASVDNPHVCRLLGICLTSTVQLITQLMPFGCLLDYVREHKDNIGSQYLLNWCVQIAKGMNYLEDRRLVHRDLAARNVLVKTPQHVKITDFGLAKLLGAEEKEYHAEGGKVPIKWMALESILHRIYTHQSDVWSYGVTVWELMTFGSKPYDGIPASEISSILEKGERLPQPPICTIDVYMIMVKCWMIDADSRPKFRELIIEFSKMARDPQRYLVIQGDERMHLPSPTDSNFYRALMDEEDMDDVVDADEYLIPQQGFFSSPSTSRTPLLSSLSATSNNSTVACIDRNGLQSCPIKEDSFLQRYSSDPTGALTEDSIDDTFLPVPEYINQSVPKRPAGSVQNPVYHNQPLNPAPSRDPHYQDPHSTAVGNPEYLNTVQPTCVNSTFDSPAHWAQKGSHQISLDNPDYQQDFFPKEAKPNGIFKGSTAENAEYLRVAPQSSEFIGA
The target of assay [5] is Fyn (Homo sapiens, UniProt P06241). In words: Kinase assay, Fyn. Type of assay: biochemical. Here is the method:
as §1

Assay [6] has as its target EphA2 (Homo sapiens, UniProt P29317). In words: Kinase assay, EphA2 (33P-ATP incorporation or luciferase-coupled ATP consumption). Type of assay: biochemical. Here is the method:
as §2, §3, §1

Assay [7] deals with PDGFR alpha (Homo sapiens, UniProt P16234). Put plainly: Kinase assay, PDGFR alpha (33P-ATP incorporation or luciferase-coupled ATP consumption). Type of assay: biochemical. The note with it: read-out: PDGF-R-A IC50. Here is the method: as §2, §3, §1
Sequence of PDGFR alpha (P16234 24-1089): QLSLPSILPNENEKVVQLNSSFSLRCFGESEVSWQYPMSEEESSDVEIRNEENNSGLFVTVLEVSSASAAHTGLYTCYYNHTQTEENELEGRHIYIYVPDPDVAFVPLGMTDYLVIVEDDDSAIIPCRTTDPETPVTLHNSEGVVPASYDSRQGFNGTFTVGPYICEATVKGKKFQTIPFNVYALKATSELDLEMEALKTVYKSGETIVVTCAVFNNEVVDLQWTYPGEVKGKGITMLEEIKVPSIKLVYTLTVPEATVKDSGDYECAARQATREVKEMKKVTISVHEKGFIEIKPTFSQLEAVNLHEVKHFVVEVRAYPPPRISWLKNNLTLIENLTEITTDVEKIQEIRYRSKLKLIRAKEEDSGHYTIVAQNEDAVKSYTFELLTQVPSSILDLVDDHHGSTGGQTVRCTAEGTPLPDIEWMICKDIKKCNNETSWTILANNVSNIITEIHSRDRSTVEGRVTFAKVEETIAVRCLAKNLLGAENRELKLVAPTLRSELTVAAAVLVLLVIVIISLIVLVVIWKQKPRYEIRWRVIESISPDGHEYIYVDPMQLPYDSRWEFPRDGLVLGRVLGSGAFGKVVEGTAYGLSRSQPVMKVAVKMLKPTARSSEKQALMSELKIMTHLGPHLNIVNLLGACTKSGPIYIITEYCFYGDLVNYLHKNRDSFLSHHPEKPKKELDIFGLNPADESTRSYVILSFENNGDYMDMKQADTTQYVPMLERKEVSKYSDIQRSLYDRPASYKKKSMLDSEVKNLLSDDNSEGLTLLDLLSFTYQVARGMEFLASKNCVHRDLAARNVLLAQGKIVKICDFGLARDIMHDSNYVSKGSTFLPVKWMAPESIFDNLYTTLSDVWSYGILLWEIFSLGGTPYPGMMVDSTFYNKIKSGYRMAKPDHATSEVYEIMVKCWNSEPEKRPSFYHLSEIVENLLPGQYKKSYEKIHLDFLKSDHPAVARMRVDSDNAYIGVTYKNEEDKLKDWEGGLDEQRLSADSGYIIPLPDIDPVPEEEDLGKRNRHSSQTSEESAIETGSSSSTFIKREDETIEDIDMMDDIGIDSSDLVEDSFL
Assay [8] concerns the target FGFR1 (Homo sapiens, UniProt P11362). Put plainly: Kinase assay, FGFR1 (33P-ATP incorporation or luciferase-coupled ATP consumption). In kind it is biochemical. Here is the method: as §2, §3, §1

Sequence of EphA2 (P29317 24-976, species assumed): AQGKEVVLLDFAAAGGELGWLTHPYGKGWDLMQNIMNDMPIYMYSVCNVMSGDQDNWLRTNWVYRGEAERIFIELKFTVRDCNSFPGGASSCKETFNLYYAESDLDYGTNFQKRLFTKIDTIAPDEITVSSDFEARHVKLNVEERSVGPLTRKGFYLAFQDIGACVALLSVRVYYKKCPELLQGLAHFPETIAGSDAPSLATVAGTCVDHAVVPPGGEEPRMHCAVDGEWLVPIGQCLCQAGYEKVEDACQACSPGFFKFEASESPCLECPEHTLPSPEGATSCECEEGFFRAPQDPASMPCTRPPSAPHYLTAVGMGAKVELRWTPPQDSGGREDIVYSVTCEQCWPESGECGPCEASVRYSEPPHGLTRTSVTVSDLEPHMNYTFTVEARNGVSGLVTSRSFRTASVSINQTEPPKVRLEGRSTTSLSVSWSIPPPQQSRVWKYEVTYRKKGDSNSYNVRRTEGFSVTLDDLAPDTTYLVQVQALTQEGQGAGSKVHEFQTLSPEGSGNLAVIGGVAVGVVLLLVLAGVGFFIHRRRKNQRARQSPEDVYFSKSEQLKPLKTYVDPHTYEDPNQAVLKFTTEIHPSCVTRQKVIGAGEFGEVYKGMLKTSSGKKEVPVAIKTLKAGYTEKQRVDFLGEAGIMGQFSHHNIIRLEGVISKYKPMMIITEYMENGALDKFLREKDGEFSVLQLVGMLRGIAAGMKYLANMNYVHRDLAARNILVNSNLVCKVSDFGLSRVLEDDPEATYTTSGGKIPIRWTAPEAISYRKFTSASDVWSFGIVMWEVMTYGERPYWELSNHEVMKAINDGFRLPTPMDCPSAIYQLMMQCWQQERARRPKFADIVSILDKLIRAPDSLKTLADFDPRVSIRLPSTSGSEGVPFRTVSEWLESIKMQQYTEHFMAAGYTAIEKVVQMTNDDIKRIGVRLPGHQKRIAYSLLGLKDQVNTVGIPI
Sequence of Flt-1 (P17948 27-1338, species assumed): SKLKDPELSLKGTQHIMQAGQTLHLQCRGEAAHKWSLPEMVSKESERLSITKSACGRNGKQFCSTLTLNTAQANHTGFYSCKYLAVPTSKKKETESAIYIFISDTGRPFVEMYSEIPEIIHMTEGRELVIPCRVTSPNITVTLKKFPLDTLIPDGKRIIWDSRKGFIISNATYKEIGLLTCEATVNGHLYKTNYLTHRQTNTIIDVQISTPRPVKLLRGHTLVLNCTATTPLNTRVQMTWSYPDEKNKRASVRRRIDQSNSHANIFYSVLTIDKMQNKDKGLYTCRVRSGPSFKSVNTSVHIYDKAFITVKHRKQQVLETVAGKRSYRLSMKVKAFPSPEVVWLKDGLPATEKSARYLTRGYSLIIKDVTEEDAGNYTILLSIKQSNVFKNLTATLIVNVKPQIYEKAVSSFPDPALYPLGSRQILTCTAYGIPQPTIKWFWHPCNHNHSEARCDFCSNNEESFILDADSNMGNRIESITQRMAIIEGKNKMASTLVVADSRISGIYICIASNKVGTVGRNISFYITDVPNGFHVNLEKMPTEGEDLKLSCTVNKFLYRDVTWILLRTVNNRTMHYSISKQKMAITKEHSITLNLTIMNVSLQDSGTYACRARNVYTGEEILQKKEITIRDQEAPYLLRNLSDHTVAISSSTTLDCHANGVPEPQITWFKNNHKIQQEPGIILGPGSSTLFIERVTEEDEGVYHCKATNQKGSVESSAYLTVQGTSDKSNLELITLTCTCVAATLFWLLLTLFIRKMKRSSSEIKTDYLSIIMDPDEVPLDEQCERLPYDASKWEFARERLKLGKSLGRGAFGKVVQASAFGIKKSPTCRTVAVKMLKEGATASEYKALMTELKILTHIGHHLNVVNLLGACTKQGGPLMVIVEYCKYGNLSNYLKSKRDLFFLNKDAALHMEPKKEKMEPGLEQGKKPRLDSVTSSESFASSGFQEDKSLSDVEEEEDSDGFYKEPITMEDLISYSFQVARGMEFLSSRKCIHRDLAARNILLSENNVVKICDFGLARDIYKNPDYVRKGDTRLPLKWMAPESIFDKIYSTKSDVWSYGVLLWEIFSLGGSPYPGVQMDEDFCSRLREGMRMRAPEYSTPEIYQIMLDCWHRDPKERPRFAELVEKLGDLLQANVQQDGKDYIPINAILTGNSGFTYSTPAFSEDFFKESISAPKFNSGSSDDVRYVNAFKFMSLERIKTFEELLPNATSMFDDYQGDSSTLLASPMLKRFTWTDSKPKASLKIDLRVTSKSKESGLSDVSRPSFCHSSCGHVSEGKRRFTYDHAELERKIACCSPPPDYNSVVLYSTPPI
Sequence of Fyn (P06241 whole entry, species assumed): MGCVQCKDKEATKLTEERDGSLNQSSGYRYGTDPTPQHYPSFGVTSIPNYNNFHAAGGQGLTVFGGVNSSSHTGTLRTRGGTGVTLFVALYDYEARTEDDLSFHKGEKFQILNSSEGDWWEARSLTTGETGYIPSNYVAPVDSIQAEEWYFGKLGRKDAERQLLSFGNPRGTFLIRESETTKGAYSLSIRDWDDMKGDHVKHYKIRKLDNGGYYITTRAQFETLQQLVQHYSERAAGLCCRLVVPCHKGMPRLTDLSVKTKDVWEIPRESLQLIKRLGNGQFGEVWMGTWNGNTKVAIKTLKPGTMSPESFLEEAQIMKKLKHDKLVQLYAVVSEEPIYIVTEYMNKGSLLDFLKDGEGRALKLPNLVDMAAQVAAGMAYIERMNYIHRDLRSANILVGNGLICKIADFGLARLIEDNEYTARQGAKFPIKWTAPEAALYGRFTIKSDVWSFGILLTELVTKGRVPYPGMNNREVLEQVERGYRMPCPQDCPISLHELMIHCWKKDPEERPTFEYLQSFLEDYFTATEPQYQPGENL

What is called IC50 is the concentration that inhibits the measured activity by half. Turning to `CCN1CCC(Nc2ccc3c(c2)/C(=C(\c2ccc(F)cc2)c2nc4ccccc4[nH]2)C(=O)N3)CC1` [Entry 16, (3Z)-3-[1H-benzimidazol-2-yl(4-fluorophenyl)methylidene]-5[(1-ethylpiperidin-4-yl)amino]-1,3-dihydro-2H-indol-2-one], the IC50 in assay [1] was 500 to 5000 nM; in assay [2], 50 to 500 nM; in assay [3], less than 50 nM; in assay [4] it was 500 to 5000 nM; in assay [5] it was 50 to 500 nM; in assay [6] it was 500 to 5000 nM. In assay [7], the IC50 is less than 50 nM.

`O=C1Nc2ccc(NC3CC4CCC(C3)N4)cc2/C1=C(\c1ccccc1)c1nc2ccccc2[nH]1` (centres unmarked) [Entry 31, (3Z)-5-(8-azabicyclo[3.2.1]oct-3-ylamino)-3-[1H-benzimidazol-2-yl(phenyl)methylidene]-1,3-dihydro-2H-indol-2-one]: the IC50 in assay [1] fell in the range of 500 to 5000 nM; in assay [2], 500 to 5000 nM; in assay [3] it was 50 to 500 nM; in assay [4] it was 500 to 5000 nM; in assay [5], 50 to 500 nM; in assay [6] it was 500 to 5000 nM. In addition, the half-inhibitory concentration (IC50) in assay [7] is 50 to 500 nM.

`COc1ccc2[nH]c(/C(=C3\C(=O)Nc4ccc(NC5CC(C)(C)NC(C)(C)C5)cc43)c3ccccc3)nc2c1` [Entry 10, (3Z)-3-[[5-(methyloxy)-1H-benzimidazol-2-yl](phenyl)methylidene]-5-[(2,2,6,6-tetramethylpiperidin-4-yl)amino]-1,3-dihydro-2H-indol-2-one]: the IC50 in assay [1], in assay [2], in assay [3], in assay [4], in assay [5] and in assay [6] was 500 to 5000 nM each time. In addition, the IC50 in assay [7] lay within 50 to 500 nM.

In the case of `CC1(C)CC(Nc2ccc3c(c2)/C(=C(\c2ccccc2)c2nc4ccccc4[nH]2)C(=O)N3)CC(C)(C)N1` [Entry 25, (3Z)-3-[1H-benzimidazol-2-yl(phenyl)methylidene]-5-[(2,2,6,6-tetramethylpiperidin-4-yl)amino]-1,3-dihydro-2H-indol-2-one], the IC50 lay in the range of 500 to 5000 nM in assay [1]; 500 to 5000 nM in assay [2]; 50 to 500 nM in assay [3]; 500 to 5000 nM in assay [4]; 500 to 5000 nM in assay [5]; 500 to 5000 nM in assay [6]. In addition, the 50% inhibitory concentration (IC50) in assay [7] lay within 50 to 500 nM.

Take `CCN1CCC(Oc2ccc3c(c2)/C(=C(\c2cccc(OC)c2)c2nc4ccccc4[nH]2)C(=O)N3)CC1` [Entry 32, (3Z)-3-{1H-benzimidazol-2-yl[3-(methyloxy)phenyl]methylidene}-5-[(1-ethylpiperidin-4-yl)oxy]-1,3-dihydro-2H-indol-2-one]: the concentration for half-maximal inhibition (IC50) was 500 to 5000 nM in assay [1]; 50 to 500 nM in assay [2]; less than 50 nM in assay [3]; 500 to 5000 nM in assay [4]; less than 50 nM in assay [5]; 500 to 5000 nM in assay [6]. In assay [7], the IC50 is less than 50 nM.

Regarding `CCN1CCC(Nc2ccc3c(c2)/C(=C(\c2ccc(C)cc2)c2nc4cc(OC)ccc4[nH]2)C(=O)N3)CC1` [Entry 6, (3Z)-5-[(1-ethylpiperidin-4-yl)amino]-3-[[5-(methyloxy)-1 H-benzimidazol-2-yl](4-methylphenyl)methylidene]-1,3-dihydro-2H-indol-2-one], the IC50 is 500 to 5000 nM in assay [1]; 50 to 500 nM in assay [2]; less than 50 nM in assay [3]; 500 to 5000 nM in assay [4]; less than 50 nM in assay [5]; 500 to 5000 nM in assay [6]. Moreover, the concentration for half-maximal inhibition (IC50) in assay [7] was less than 50 nM.

Turning to `CCN1CCC(Nc2ccc3c(c2)/C(=C(\c2ccc(N)cc2)c2nc4ccccc4[nH]2)C(=O)N3)CC1` [Entry 11, (3Z)-3-[(4-aminophenyl)(1H-benzimidazol-2-yl)methylidene]-5-[(1-ethylpiperidin-4-yl)amino]1,3-dihydro-2H-indol-2-one], the half-inhibitory concentration (IC50) in assay [1] was 500 to 5000 nM; in assay [2], 50 to 500 nM; in assay [3], less than 50 nM; in assay [4], 50 to 500 nM; in assay [5] it was less than 50 nM; in assay [6], 500 to 5000 nM. Besides, the IC50 in assay [7] is less than 50 nM.

Take `CCN1CCC(Nc2ccc3c(c2)/C(=C(\c2cccc(N)c2)c2nc4ccccc4[nH]2)C(=O)N3)CC1` [Entry 21, (3Z)-3-[(3-aminophenyl) (1H-benzimidazol-2-yl)methylidene]-5-[(1-ethylpiperidin-4-yl)amino]-1,3-dihydro-2H-indol-2-one]: the IC50 is 500 to 5000 nM in assay [1]; 50 to 500 nM in assay [2]; less than 50 nM in assay [3]; 500 to 5000 nM in assay [4]; 50 to 500 nM in assay [5]; 500 to 5000 nM in assay [6]. For the same compound, the IC50 in assay [7] is less than 50 nM.

As to `O=C1Nc2ccc(NC3CCNCC3)cc2/C1=C(\c1ccccc1)c1nc2ccccc2[nH]1` [Entry 22, (3Z)-3-[1H-benzimidazol-2-yl(phenyl)methylidene] -5-(piperidin-4-ylamino)-1,3-dihydro-2H-indol-2-one], the IC50 in assay [1] is 50 to 500 nM; in assay [2] it was 50 to 500 nM; in assay [3] it was less than 50 nM; in assay [4] it was 500 to 5000 nM; in assay [5] it was less than 50 nM; in assay [6], 50 to 500 nM. Besides, in assay [7], the IC50 is less than 50 nM.

On to `CCN1CCC(Nc2ccc3c(c2)/C(=C(\c2ccc([N+](=O)[O-])cc2)c2nc4ccccc4[nH]2)C(=O)N3)CC1` [Entry 7, (3Z)-3-(1H-benzimidazol-2-yl(4-nitrophenyl)methylidene]-5-[(1-ethylpiperidin-4-yl)amino]-1,3-dihydro-2H-indol-2-one], for which the IC50 was greater than 5000 nM in assay [1]; 50 to 500 nM in assay [2]; less than 50 nM in assay [3]; 500 to 5000 nM in assay [4]; 50 to 500 nM in assay [5]; greater than 5000 nM in assay [6]. Further, in assay [7], the IC50 was less than 50 nM.

Consider `CCCc1ccc(/C(=C2/C(=O)Nc3ccc(NC4CCN(CC)CC4)cc32)c2ncc[nH]2)cc1` [Entry 59, (3Z)-5-[(1-ethylpiperidin-4-yl)amino]-3-[1H-imidazol-2-yl(4-propylphenyl)methylidene]-1,3-dihydro-2H-indol-2-one], for which the IC50 in assay [1] was 500 to 5000 nM; in assay [8], less than 50 nM; in assay [3], less than 50 nM; in assay [4], 50 to 500 nM; in assay [5], less than 50 nM; in assay [6], 500 to 5000 nM. The IC50 in assay [7] is less than 50 nM.

In the case of `COCCN1CCC(Nc2ccc3c(c2)/C(=C(\c2ccc(C)cc2)c2ncc[nH]2)C(=O)N3)CC1` [Entry 69], the IC50 in assay [1] is 500 to 5000 nM; in assay [8], less than 50 nM; in assay [3], less than 50 nM; in assay [4], 50 to 500 nM; in assay [5], less than 50 nM; in assay [6] it was 50 to 500 nM. The IC50 in assay [7] was less than 50 nM.

With `O=C1Nc2ccc(NC3CCNCC3)cc2/C1=C(\c1cccc(F)c1)c1ncc[nH]1` [Entry 81, (3Z)-3-[(3-fluorophenyl)(1H-imidazol-2-yl)methylidene]-5-(piperidin-4-ylamino)-1,3-dihydro-2H-indol-2-one], the IC50 in assay [1] is 500 to 5000 nM; in assay [8] it was less than 50 nM; in assay [3], less than 50 nM; in assay [4], greater than 5000 nM; in assay [5], less than 50 nM; in assay [6], 50 to 500 nM. Also, the IC50 in assay [7] was less than 50 nM.

For the compound `CCN(CC)CCN1CCC(Nc2ccc3c(c2)/C(=C(\c2cccc(F)c2)c2ncc[nH]2)C(=O)N3)CC1` [Entry 84, (3Z)-5-({1-[2-(diethylamino)ethyl]piperidin-4-yl}amino)-3-[(3-fluorophenyl)(1H-imidazol-2-yl)methylidene]-1,3-dihydro-2H-indol-2-one], the IC50 in assay [1] is greater than 5000 nM; in assay [8], 50 to 500 nM; in assay [3], 50 to 500 nM; in assay [4], greater than 5000 nM; in assay [5], 50 to 500 nM; in assay [6], 500 to 5000 nM. Moreover, the IC50 in assay [7] was in the range of 50 to 500 nM.
